From US20070116781A1, “Hydrogen Cyanamide Pesticide Formulations” (priority 2005, published 2007)

Columns and labels:
Dorylaimida nematodes = experiment: Effect on beneficial nematodes in covered pots of silt loam; assay type: in vivo
Experimental: In this study, the soil was naturally infested with four species of nematodes, two of which were deleterious and two beneficial, and observations were made of both the nematode survival and the growth of the soybean plants.
Stock solutions of hydrogen cyanamide at 1.0% by weight and propionic acid at 5.0% by weight, both in water, were prepared, the hydrogen cyanamide from a phosphate-buffered 50% aqueous solution. Planting pots measuring 10 cm in diameter, each containing 1 kg of soil, were used. The soil was silt loam from a cotton field, pH 6.2, CEC<10 meq/100 g soil, organic matter<1.0%. The treatment chemicals were combined in various dilutions such that 100 mL of the combined dilutions contained the desired amount of each chemical for each test. The combined dilutions were then applied to the soil surface in each pot, at 100 mL of combined dilution per pot. The dilutions were selected to achieve target application rates expressed in milligrams of the treatment chemical per kilogram of soil, with 1 milligram of treatment chemical per kilogram of soil being approximately equal to 2 kilograms of the chemical per hectare of soil or 2 pounds of the chemical per acre of soil.
Immediately after the treatment chemicals were applied, each pot was covered by a thick (1.5 mil), clear, low-density polyethylene bag. After twelve days, the bags were removed and soil samples were taken from each pot for nematological analysis by the salad bowl technique of Rodriguez-Kabana, R., and M. H. Pope, Nematropica, 11: 175-186 (1981). The results of these analyses are listed in Table I as pre-plant test results. The results for the two deleterious nematodes are also shown as plots of the number of nematodes vs. the hydrogen cyanamide application rate in FIGS. 1 and 2.
After the polyethylene bags were removed, each pot was planted with Hutcheson soybean seeds at 5 seeds per pot, and the seeds were allowed to germinate and the plants to grow for 45 days. The resulting plants were then removed from the pots, the root systems were washed, and the number of plants in each pot was determined. The weights of both fresh shoots and roots were also determined as well as the shoot height and the relative health of the root system, using a subjective index. Soil samples were also collected, and the soil and roots were incubated to determine nematode populations. Treatments were arranged in randomized complete block design with seven replications per treatment, and statistical evaluation of the data was performed with analyses of variance (ANOVA) and standard regression procedures. Fischer's Least Significant Difference at p 0.05 was calculated when appropriate. The results of these tests are listed as final test results in Tables II, III, and IV, with nematode populations in the soil listed in Table II, the nematode populations in the root systems in Table III, and the plant and root parameters of the soybean shoots in Table IV.

yellow nutsedge = experiment: Herbicidal activity, cyanamide and propionic acid, pre-emergence, covered pots; assay type: in vivo, Cyperus esculentus
Experimental: (§1) The weeds used in these tests were grown from a standard weed seed pack of common annual and perennial weeds representing an extreme weed situation. The weeds included yellow nutsedge (Cyperus esculentus), crabgrass (Digitaria sanguinalis), pigweed (Amaranthus spp.), momingglory (Ipomoea spp.), sicklepod (Senna obtusifolia) and other annual weeds. Observations of the effects on the weed population as a whole were made, and individual observations were made for yellow nutsedge, crabgrass, and sicklepod. Stock solutions of hydrogen cyanamide at 1.25% by weight and propionic acid at 5.0% by weight, both in water, were prepared, the hydrogen cyanamide from a phosphate-buffered 50% aqueous solution. […] Data analyses were performed in the same manner as Example 1. The results expressed in weeds per pot are listed in Table V for all weeds, Table VI for yellow nutsedge, Table VII for crabgrass, and Table VIII for sicklepod, all at various application rates for both hydrogen cyanamide and propionic acid.

crabgrass = experiment: as above; assay type: in vivo, Digitaria sanguinalis
Experimental: as §1

morningglory = experiment: Herbicidal activity, cyanamide and citric acid, pre-emergence, covered pots; assay type: in vivo, Ipomoea spp.
Experimental: The weeds used in these tests were grown from a standard weed seed pack of common annual and perennial weeds representing an extreme weed situation. The weeds included crabgrass (Digitaria sanguinalis), yellow nutsedge (Cyperus esculentus), […] (Ipomoea spp.), pigweed (Amaranthus spp.), and other annual weeds. Observations of the effects on the weed population as a whole were made, and individual observations were made for crabgrass, yellow nutsedge, sicklepod, morningglory, and pigweed. Stock solutions of hydrogen cyanamide at 1.25% by weight and citric acid at 5.0% by weight, both in water, were prepared, the hydrogen cyanamide from a phosphate-buffered 50% aqueous solution. […] Data analyses were performed in the same manner as Example 1. The results expressed in weeds per pot are listed in Table XIV for all weeds, Table XV for crabgrass, Table XVI for yellow nutsedge, Table XVII for sicklepod, Table XVIII for morningglory, and Table XIX for pigweed, all at various application rates for hydrogen cyanamide, with and without citric acid.

[1] = 8 d after treatment, cyanamide 75 mg/kg soil
[2] = 8 d after treatment, cyanamide 150 mg/kg soil
[3] = 14 d after treatment, cyanamide 75 mg/kg soil
[4] = 14 d after treatment, cyanamide 150 mg/kg soil
[5] = 20 d after treatment, cyanamide 75 mg/kg soil
[6] = 20 d after treatment, cyanamide 150 mg/kg soil
[7] = 27 d after treatment, cyanamide 75 mg/kg soil
[8] = 27 d after treatment, cyanamide 150 mg/kg soil

N#CN [Cyanamide, hydrogen cyanamide]
Surviving Nematodes: Dorylaimida (Dorylaimida nematodes; 12 d after treatment, pre-plant, cyanamide 20 mg/kg soil): 24 per 100 mL of soil | Surviving Nematodes: Dorylaimida (Dorylaimida nematodes; 12 d after treatment, pre-plant, cyanamide 40 mg/kg soil): 20 per 100 mL of soil | Surviving Nematodes: Dorylaimida (Dorylaimida nematodes; 12 d after treatment, pre-plant, cyanamide 60 mg/kg soil): 5 per 100 mL of soil | Surviving Nematodes: Dorylaimida (Dorylaimida nematodes; 12 d after treatment, pre-plant, cyanamide 80 mg/kg soil): 6 per 100 mL of soil | Surviving Nematodes: Dorylaimida (Dorylaimida nematodes; 12 d after treatment, pre-plant, cyanamide 120 mg/kg soil): 0 per 100 mL of soil | Surviving Nematodes: Dorylaimida (Dorylaimida nematodes; 57 d after treatment, 45 d after planting, cyanamide 20 mg/kg soil): 9 per 100 mL of soil | Surviving Nematodes: Dorylaimida (Dorylaimida nematodes; 57 d after treatment, 45 d after planting, cyanamide 40 mg/kg soil): 8 per 100 mL of soil | Surviving Nematodes: Dorylaimida (Dorylaimida nematodes; 57 d after treatment, 45 d after planting, cyanamide 60 mg/kg soil): 4 per 100 mL of soil | Surviving Nematodes: Dorylaimida (Dorylaimida nematodes; 57 d after treatment, 45 d after planting, cyanamide 80 mg/kg soil): 5 per 100 mL of soil | Surviving Nematodes: Dorylaimida (Dorylaimida nematodes; 57 d after treatment, 45 d after planting, cyanamide 120 mg/kg soil): 0 per 100 mL of soil | Weeds Per Pot: Yellow Nutsedge (yellow nutsedge; [1]): 1.4 | Weeds Per Pot: Yellow Nutsedge (yellow nutsedge; [2]): 0.1 | Weeds Per Pot: Yellow Nutsedge (yellow nutsedge; [3]): 3.6 | Weeds Per Pot: Yellow Nutsedge (yellow nutsedge; [4]): 2.4 | Weeds Per Pot: Yellow Nutsedge (yellow nutsedge; [5]): 4.6 | Weeds Per Pot: Yellow Nutsedge (yellow nutsedge; [6]): 3.4 | Weeds Per Pot: Yellow Nutsedge (yellow nutsedge; [7]): 6.9 | Weeds Per Pot: Yellow Nutsedge (yellow nutsedge; [8]): 6.1 | Weeds Per Pot: Crabgrass (crabgrass; [1]): 0 | Weeds Per Pot: Crabgrass (crabgrass; [2]): 0 | Weeds Per Pot: Crabgrass (crabgrass; [3]): 3.3 | Weeds Per Pot: Crabgrass (crabgrass; [4]): 0 | Weeds Per Pot: Crabgrass (crabgrass; [5]): 8.6 | Weeds Per Pot: Crabgrass (crabgrass; [6]): 3.7 | Weeds Per Pot: Crabgrass (crabgrass; [7]): 7.7 | Weeds Per Pot: Crabgrass (crabgrass; [8]): 4 | Weeds Per Pot: Morningglory (morningglory; 13 d after treatment, cyanamide 50 mg/kg soil): 0 | Weeds Per Pot: Morningglory (morningglory; 13 d after treatment, cyanamide 100 mg/kg soil): 0 | Weeds Per Pot: Morningglory (morningglory; 13 d after treatment, cyanamide 150 mg/kg soil): 0 | Weeds Per Pot: Morningglory (morningglory; 13 d after treatment, cyanamide 200 mg/kg soil): 0 | Weeds Per Pot: Morningglory (morningglory; 13 d after treatment, cyanamide 250 mg/kg soil): 0 | Weeds Per Pot: Morningglory (morningglory; 19 d after treatment, cyanamide 50 mg/kg soil): 0 | Weeds Per Pot: Morningglory (morningglory; 19 d after treatment, cyanamide 100 mg/kg soil): 0 | Weeds Per Pot: Morningglory (morningglory; 19 d after treatment, cyanamide 150 mg/kg soil): 0 | Weeds Per Pot: Morningglory (morningglory; 19 d after treatment, cyanamide 200 mg/kg soil): 0 | Weeds Per Pot: Morningglory (morningglory; 19 d after treatment, cyanamide 250 mg/kg soil): 0 | Weeds Per Pot: Morningglory (morningglory; 26 d after treatment, cyanamide 50 mg/kg soil): 1.6 | Weeds Per Pot: Morningglory (morningglory; 26 d after treatment, cyanamide 100 mg/kg soil): 0.7 | Weeds Per Pot: Morningglory (morningglory; 26 d after treatment, cyanamide 150 mg/kg soil): 0.4 | Weeds Per Pot: Morningglory (morningglory; 26 d after treatment, cyanamide 200 mg/kg soil): 0.3 | Weeds Per Pot: Morningglory (morningglory; 26 d after treatment, cyanamide 250 mg/kg soil): 0.1
